Experiments:
Type in all cases: cell-based, human
CD8TL clone A10 [1] = test: FRET analysis of TCR-CD8 proximity on tetramer^low CD8TLs; conditions: for FRET between TCR and CD8 (TCR-CD8 proximity): tetramer^low cells, day 4 after stimulation, incubated 2 hours, o-phenantholin 30 μM, lactose 100 mM, LacNAc 1 mM, sucrose 100 nM, vs untreated cells
Method: (§1) To elaborate, samples of 2×10^5 cells were washed in Hank's medium that had been supplemented with 1% human serum, and were then resuspended, in 50 μl of medium, which contained either an anti-TCRβ-PE antibody (the “donor” antibody), or an anti-CD8α-Alexa647 antibody (the “acceptor” antibody), or both. The former was diluted at 1/20 and the latter, at 1/300.
(§2) Samples were incubated for 30 minutes at 4° C., washed, and fixed with paraformaldehyde (2% w/v in PBS). Analysis was carried out on a FACS system, and transfer of fluorescence was calculated as FRET units, in accordance with Doucey, et al., J. Biol. Chem., 278:3257-3264 (2003), incorporated by reference. A FRET unit is defined as: [E3both−E3none]−[(E3A647−E3none)×(E2both/E2A647)]−[(E3PE−3none)×(E1both/E1PE)]
E1 is the fluorescence detected at 580 nm, following excitation at 488 nm. E2 is fluorescence detected at 670 nm, following excitation at 630 nm, and E3 is fluorescence detected at 670 nm following excitation at 488 nm.
After the molecules are excited at the donor level, transfer of energy from donor to acceptor happens only if the distance between two molecules is less than 10 nm, with energy transfer being measured by emission at the acceptor wavelength.
(§3) To test this, cells of CD8TL clone A10 were collected, on days 0 and 4, after stimulation with HLA-A1^+, MAGE-3^+ tumor cells. Mean fluorescence indices were determined for both the high and low staining populations, on days 0 and 4. […] staining was carried out, as described supra, with cells that were either incubated with no test substance, or which had been incubated for 2 hours, on day 4, with one of o-phenantholin (30 μM), a known Zn chelator, lactose, (100 mM), LacNAc (1 mM), or sucrose (100 nM). The rationale behind the incubation with lactose, LacNAc, and sucrose is explained in Example 11. A final sample was incubated with swainsonin (0.5 μM) on day 0, before the cells were stimulated.
(§4) The cells were then washed, and analyzed for all of tetramer staining, proximity of the molecules via FRET, and IFN-γ production following antigenic stimulation.

CD8TL clone A10 [2] = test: IFN-γ production following antigenic stimulation; conditions: for ability to release IFN-γ upon antigenic stimulation: tetramer^low cells, day 4 after stimulation, incubated 2 hours, o-phenantholin 30 μM, lactose 100 mM, LacNAc 1 mM, sucrose 100 nM, vs untreated cells
Method: In addition to the experiments set forth, supra the effector capability of the T lymphocytes was tested, at various points during the period in which they were stimulated. Stimulation conditions are set forth in Example 1, supra. The effector activity was determined by contacting samples of 5000 CD8TLs with 2×10^5 HLA-A1 EBV-B cells which had been incubated for one hour with 1 μM of the peptide of SEQ ID NO: 1 at 37° C., and co-culturing the mixed sample, overnight. The amounts of IFN-γ and IL-2 resulting from the activation of the T cells were measured in the supernatants of the co-cultured cells via ELISAs.
as §3, §4

tetramer^low CD8TLs = test: IFN-γ release by tetramer^low CD8TLs treated with galectin-3 binders or neuraminidase; conditions: CD8TLs collected 3-4 days after stimulation
Method: To test this, tetramer^low CD8TLs, collected 3-4 days after stimulation, as described supra, were treated with LacNAc, a known competitive binder of galectin-3. Release of IFN-γ was restored.
These experiments were repeated testing two other galectin-3 binders, “tri-LacNAc,” and an antibody against the N-terminus of galectin-3.
The experiments described herein, using neuraminidase, were carried out on human CD8TLs, and the results parallel those observed by Kao, et al., Immunol., 17:1607-1617 (2005), on murine cells. It is hypothesized that a sialic acid residue may be present, near the LacNAc motif of galectin-binding proteins, and act to increase galectin-3 affinity.

CD8TL clone A10 [3] = test: HLA-peptide tetramer staining of tetramer^low CD8TLs; conditions: for tetramer staining (ability to bind tetramers): tetramer^low cells, day 4 after stimulation, incubated 2 hours, o-phenantholin 30 μM, lactose 100 mM, LacNAc 1 mM, sucrose 100 nM, vs untreated cells
Method: Fourteen days after the stimulation, the CD8TLs were then stained with complexes of HLA-A0101 folded with SEQ ID NO: 1, prepared as described by Coulie, et al., Proc. Natl. Acad. Sci. USA, 98:10290-10295 (2001), incorporated by reference. The complexes were biotinylated and then labeled with phycoerythrin (“PE”), using known methods. Staining was accomplished by incubating CD8TLs, for 10 minutes, at room temperature, with 5 nM of tetramer, and then washing.
as §3, §4

[4] = tested on: kidney infiltrating T cells isolated from the kidney allograft; test: IFN-γ production by functional kidney infiltrating T cells; conditions: LacNAc treatment; stimulation with allogeneic EBV-B cells or anti-CD3/CD28 beads
Excerpt: A standard depletion strategy was used to isolate CD8^+ T cells from a breast carcinoma metastasis, ovarian carcinoma ascites, blood, and a kidney allograft that had been resected during a chronic rejection process.
As was noted supra, there was clear TCR CD8 FRET on kidney infiltrating T cells isolated from the kidney allograft. These T cells released IFN-γ upon stimulation with allogeneic EBV-B cells, or beads coated with anti-CD3/CD28 antibodies.
Different treatments were not, however, unspecific.

[5] = tested on: TILs from ovarian cancer ascites; test: IFN-γ response of anergic TILs to stimulation; conditions: overnight incubation with 1 mM LacNAc
Method: It was confirmed by the fact that, notwithstanding overnight stimulation with a mixed population of tumor cells, B cells, and macrophages collected from the same ascites, or with allogenic EBV-β cells. IFNγ was not produced.
When these anergic TILs were incubated overnight with 1 mM LacNAc, their IFN-γ response increased more than 10 fold.

[6] = tested on: CD8+ TILs from gastric carcinoma ascites; test: TCR CD8 FRET on CD8+ TILs; conditions: 1 mM LacNAc, 37° C., 5 hours of treatment; compared with tetramer^high CD8TL A10
Method: as §1, §2
These experiments tested the impact of N-acetyllactosamine (LacNAc) on colocalization. Gastric carcinoma ascites were screened for CD8^+ TILs, after they had been incubated for various time periods at 37° C., with 1 mM of LacNAc, and washed. As a control, the line CD8TL A10 was used, two weeks after its last antigenic stimulation.

[7] = swainsonin 0.5 μM added on day 0 before restimulation, read at day 4

Structure (SMILES)	FRET between TCR and CD8 (TCR-CD8 proximity) (CD8TL clone A10 [1])	ability to release IFN-γ upon antigenic stimulation (CD8TL clone A10 [2])	release of IFN-γ by tetramer^low CD8TLs (tetramer^low CD8TLs)	tetramer staining (ability to bind tetramers) (CD8TL clone A10 [3])	IFN-γ production of kidney infiltrating T cells [4]	increase of IFN-γ response to antigen stimulation [5]	TCR CD8 FRET on TILs [6]	FRET efficiency (TCR-CD8) (CD8TL clone A10 [1]; [7])	ability to release IFN-γ when restimulated (CD8TL clone A10 [2]; swainsonin 0.5 μM added on day 0 before restimulation)	tetramer staining (CD8TL clone A10 [3]; [7])
CC(=O)N[C@H]1C(O)O[C@H](CO)[C@@H](O[C@@H]2O[C@H](CO)[C@H](O)[C@H](O)[C@H]2O)[C@@H]1O (stereo partly shown) [LacNAc, N-acetyl lactosamine]	higher FRET efficiencies	higher ability to release IFN-γ	restored	higher degrees of tetramer staining	did not result in increased IFN-γ production	more than 10 fold	recovered the same level of TCR CD8 FRET	–	–	–
OC[C@H]1O[C@@](CO)(O[C@H]2O[C@H](CO)[C@@H](O)[C@H](O)[C@H]2O)[C@@H](O)[C@@H]1O [Sucrose, sucrose]	no effect	no effect	–	no effect	–	–	–	–	–	–
O[C@H]1[C@H]2[C@H](O)CCCN2C[C@H]1O [Swainsonin, swainsonin]	–	–	–	–	–	–	–	higher FRET efficiency	higher ability to release IFN-γ	higher tetramer staining
OC[C@H]1O[C@@H](O[C@H]2[C@H](O)[C@@H](O)C(O)O[C@@H]2CO)[C@H](O)[C@@H](O)[C@H]1O (stereo partly shown) [lactose]	higher FRET efficiencies	higher ability to release IFN-γ	–	higher degrees of tetramer staining	–	–	–	–	–	–
c1cnc2c(c1)ccc1cccnc12 [o-phenantholin]	regained FRET exchanges between the 2 molecules	regained	–	regained	–	–	–	–	–	–
